Data reported in patent publication US20010006697A1, “Composition and method for producing low cholesterol eggs” (priority 1997, published 2001).
Several values for one entry are separate records, joined by “and”; a condition that tells them apart may be missing. Equal values may be shown once. Read-outs that look alike come from different tables or passages of the source. Marks after values point to notes of the source that are not given here.

How the values were obtained:
plasma VLDL particles [1] = conditions: day 35
laying hens [2] = experiment: Liver cholesterol content; conditions: day 35
laying hens [3] = experiment: Yolk cholesterol contents of eggs from statin-treated laying hens; assay type: in vivo, White Leghorn hens
Method: Agric. […] Hens were treated as described in Example 1. […] The eggs were hard-cooked, and the yolks were separated, weighed, and crumbled. […] Agric. […] Egg homogenate filtrates were analyzed for cholesterol as described in Rudel, L. L. and Morris, M. D., J. Lipid Res. 14:364-366 (1973).

laying hens [4] = conditions: 0.03% of diet; day 35, fasted 15 hours
laying hens [5] = experiment: Egg production, egg weights and yolk weights of statin-treated laying hens; assay type: in vivo, White Leghorn hens
Method: Hens were treated as described in Example 1. Egg yolk was weighed as outlined in Example 2.

plasma VLDL particles [6] = conditions: day 35; remark: listed apart in the source
[7] = 0.06% of diet, week 5 (maximal reduction for simvastatin, lovastatin)
[8] = 0.03% of diet, Overall (weeks 1-5)
[9] = 0.06% of diet, Overall (weeks 1-5)

SMILES: CCC(C)(C)C(=O)O[C@H]1C[C@@H](C)C=C2C=C[C@H](C)[C@H](CC[C@@H]3C[C@@H](O)CC(=O)O3)[C@H]21 [Simvastatin]
- Plasma VLDL composition: EC (esterified cholesterol) (plasma VLDL particles [1]; 0.03% of diet): 0.06 ± 0.02^a,b %
- Plasma VLDL composition: PC (phosphatidylcholine) (plasma VLDL particles [1]; 0.03% of diet): 12.15 ± 0.58^b %
- Plasma VLDL composition: PE (phosphatidylethanolamine) (plasma VLDL particles [1]; 0.03% of diet): 3.96 ± 0.17^a %
- Plasma VLDL composition: Protein (plasma VLDL particles [1]; 0.03% of diet): 17.99 ± 1.48^a %
- Plasma VLDL composition: SM (sphingomyelin) (plasma VLDL particles [1]; 0.03% of diet): 1.77 ± 1.24^a %
- Plasma VLDL composition: TG (triglyceride) (plasma VLDL particles [1]; 0.03% of diet): 61.23 ± 2.98^a %
- Plasma VLDL composition: UC (unesterified cholesterol) (plasma VLDL particles [1]; 0.03% of diet): 2.84 ± 0.20^a %
- Plasma VLDL composition: EC (esterified cholesterol) (plasma VLDL particles [1]; 0.06% of diet): 0.08 ± 0.04^a,b %
- Plasma VLDL composition: PC (phosphatidylcholine) (plasma VLDL particles [1]; 0.06% of diet): 13.85 ± 0.61^a,b %
- Plasma VLDL composition: PE (phosphatidylethanolamine) (plasma VLDL particles [1]; 0.06% of diet): 3.65 ± 0.51^a %
- Plasma VLDL composition: Protein (plasma VLDL particles [1]; 0.06% of diet): 17.06 ± 0.84^a %
- Plasma VLDL composition: SM (sphingomyelin) (plasma VLDL particles [1]; 0.06% of diet): 0.36 ± 0.23^a %
- Plasma VLDL composition: TG (triglyceride) (plasma VLDL particles [1]; 0.06% of diet): 62.03 ± 1.53^a %
- Plasma VLDL composition: UC (unesterified cholesterol) (plasma VLDL particles [1]; 0.06% of diet): 2.97 ± 0.13^a %
- Liver Cholesterol mg/g liver (laying hens [2]; 0.03% of diet): 3.1 ± 0.10^b mg/g liver
- Liver Cholesterol mg/liver (laying hens [2]; 0.03% of diet): 86.8 ± 2.9^a mg/liver
- Liver Cholesterol mg/g liver (laying hens [2]; 0.06% of diet): 2.9 ± 0.04^b,c mg/g liver
- Liver Cholesterol mg/liver (laying hens [2]; 0.06% of diet): 82.6 ± 1.9^a mg/liver
- Yolk cholesterol content, mg cholesterol/g yolk (laying hens [3]; 0.03% of diet, Week 0): 10.8 ± 0.2^a mg cholesterol/g yolk
- Yolk cholesterol content, mg cholesterol/yolk (laying hens [3]; 0.03% of diet, Week 0): 189.7 ± 6.1^a mg cholesterol/yolk
- Yolk cholesterol content, mg cholesterol/g yolk (laying hens [3]; 0.03% of diet, Week 1): 11.2 ± 0.2^a,b mg cholesterol/g yolk
- Yolk cholesterol content, mg cholesterol/yolk (laying hens [3]; 0.03% of diet, Week 1): 192.9 ± 5.3^a mg cholesterol/yolk
- Yolk cholesterol content, mg cholesterol/g yolk (laying hens [3]; 0.03% of diet, Week 2): 10.3 ± 0.2^c,d mg cholesterol/g yolk
- Yolk cholesterol content, mg cholesterol/g yolk (laying hens [3]; 0.03% of diet, Week 3): 10.0 ± 0.1^c,d mg cholesterol/g yolk
- Yolk cholesterol content, mg cholesterol/yolk (laying hens [3]; 0.03% of diet, Week 3): 166.2 ± 2.7^b mg cholesterol/yolk
- Yolk cholesterol content, mg cholesterol/g yolk (laying hens [3]; 0.03% of diet, Week 4): 10.3 ± 0.2^b,c mg cholesterol/g yolk
- Yolk cholesterol content, mg cholesterol/g yolk (laying hens [3]; 0.03% of diet, Week 5): 10.1 ± 0.1^b mg cholesterol/g yolk
- Yolk cholesterol content, mg cholesterol/yolk (laying hens [3]; 0.03% of diet, Week 5): 172.1 ± 2.9^b,c mg cholesterol/yolk
- Yolk cholesterol content, mg cholesterol/g yolk (laying hens [3]; 0.06% of diet, Week 0): 11.0 ± 0.3^a mg cholesterol/g yolk
- Yolk cholesterol content, mg cholesterol/yolk (laying hens [3]; 0.06% of diet, Week 0): 191.1 ± 7.9^a mg cholesterol/yolk
- Yolk cholesterol content, mg cholesterol/g yolk (laying hens [3]; 0.06% of diet, Week 1): 10.7 ± 0.2^b mg cholesterol/g yolk
- Yolk cholesterol content, mg cholesterol/yolk (laying hens [3]; 0.06% of diet, Week 1): 188.7 ± 9.1^a,b mg cholesterol/yolk
- Yolk cholesterol content, mg cholesterol/g yolk (laying hens [3]; 0.06% of diet, Week 2): 10.0 ± 0.1^d mg cholesterol/g yolk
- Yolk cholesterol content, mg cholesterol/yolk (laying hens [3]; 0.06% of diet, Week 2): 170.8 ± 3.0^b mg cholesterol/yolk
- Yolk cholesterol content, mg cholesterol/g yolk (laying hens [3]; 0.06% of diet, Week 3): 9.8 ± 0.1^d mg cholesterol/g yolk
- Yolk cholesterol content, mg cholesterol/yolk (laying hens [3]; 0.06% of diet, Week 3): 166.0 ± 4.6^b mg cholesterol/yolk
- Yolk cholesterol content, mg cholesterol/g yolk (laying hens [3]; 0.06% of diet, Week 4): 9.9 ± 0.3^c mg cholesterol/g yolk
- Yolk cholesterol content, mg cholesterol/yolk (laying hens [3]; 0.06% of diet, Week 4): 170.4 ± 7.0^b mg cholesterol/yolk
- Yolk cholesterol content, mg cholesterol/g yolk (laying hens [3]; 0.06% of diet, Week 5): 9.3 mg cholesterol/g yolk and 9.3 ± 0.1^c mg cholesterol/g yolk
- Yolk cholesterol content, mg cholesterol/yolk (laying hens [3]; 0.06% of diet, Week 5): 158.0 mg cholesterol/yolk and 158.0 ± 2.7^c,d mg cholesterol/yolk
- yolk cholesterol reduction from control on a per yolk (egg) basis (laying hens [3]; [7]): 22%
- yolk cholesterol reduction from control per g of yolk (mg/g basis) (laying hens [3]; [7]): 20%
- change of plasma total cholesterol concentration vs control (laying hens [4]): −36%
- Egg weight, g (laying hens [5]; [8]): 63.3 ± 1.4^a,b (141) g
- Hen-day egg production, % (laying hens [5]; [8]): 80.6 ± 2.3^a,b (141) %
- Egg weight, g (laying hens [5]; 0.03% of diet, Week 1): 63.8 ± 1.0^a g
- Hen-day egg production, % (laying hens [5]; 0.03% of diet, Week 1): 80.0 ± 2.5^d %
- Egg weight, g (laying hens [5]; 0.03% of diet, Week 2): 63.9 ± 0.9^a,b g
- Hen-day egg production, % (laying hens [5]; 0.03% of diet, Week 2): 85.7 ± 1.5^a,b %
- Egg weight, g (laying hens [5]; 0.03% of diet, Week 3): 62.5 ± 0.7^b,c g
- Hen-day egg production, % (laying hens [5]; 0.03% of diet, Week 3): 80.0 ± 1.2^b %
- Egg weight, g (laying hens [5]; 0.03% of diet, Week 4): 62.8 ± 0.7^b,c g
- Hen-day egg production, % (laying hens [5]; 0.03% of diet, Week 4): 80.0 ± 1.2^b,c %
- Egg weight, g (laying hens [5]; 0.03% of diet, Week 5): 62.9 ± 0.7^a,b g
- Hen-day egg production, % (laying hens [5]; 0.03% of diet, Week 5): 80.0 ± 1.2^b,c %
- Egg weight, g (laying hens [5]; [9]): 62.0 ± 1.9^a,b (144) g
- Hen-day egg production, % (laying hens [5]; [9]): 82.3 ± 1.9^a,b (144) %
- Egg weight, g (laying hens [5]; 0.06% of diet, Week 1): 63.8 ± 1.0^a g
- Hen-day egg production, % (laying hens [5]; 0.06% of diet, Week 1): 85.7 ± 1.5^b,c %
- Egg weight, g (laying hens [5]; 0.06% of diet, Week 2): 62.0 ± 1.0^b,c g
- Hen-day egg production, % (laying hens [5]; 0.06% of diet, Week 2): 82.9 ± 1.0^b %
- Egg weight, g (laying hens [5]; 0.06% of diet, Week 3): 61.0 ± 1.0^c g
- Hen-day egg production, % (laying hens [5]; 0.06% of diet, Week 3): 77.1 ± 1.2^b %
- Egg weight, g (laying hens [5]; 0.06% of diet, Week 4): 62.2 ± 1.0^c,d g
- Hen-day egg production, % (laying hens [5]; 0.06% of diet, Week 4): 82.9 ± 1.0^b %
- Egg weight, g (laying hens [5]; 0.06% of diet, Week 5): 60.5 ± 0.8^b g
- Hen-day egg production, % (laying hens [5]; 0.06% of diet, Week 5): 88.6 ± 1.0^a %
- Plasma VLDL particle Diameter nm (plasma VLDL particles [6]; 0.03% of diet): 35.2 ± 0.1^a,b nm
- Plasma VLDL particle Diameter nm (plasma VLDL particles [6]; 0.06% of diet): 35.3 ± 0.1^a,b nm
